Measured values reported in US12577235B2, “Crystalline form of CXCR2 antagonist and application thereof” (Shenzhen Optimum Biological Technology Co., Ltd, priority 2019, dated 2026).

How the values were obtained:
[1] = Plasma pharmacokinetic assay in rats; type: in vivo, Lewis rats
Method: In this plasma pharmacokinetic assay, 4 male Lewis rats were used and randomized into two groups, with 2 animals in each group. The animals in the first group were given 2 mg/kg of the test compound by intravenous injection and the animals in the second group were given 10 mg/kg of the test compound by intragastric administration. An aqueous solution of 1% DMSO/20% PEG400/79% (HP-b-CD) was used as the vehicle, and the resulting intravenous and intragastric formulations (adjusted to pH=2.78) were clear solutions. Blood samples were collected from saphenous veins of animals at 0.0830, 0.25, 0.5, 1, 2, 4, 6, 8 and 24 hours post-dose for the intravenous injection group, and at 0.25, 0.5, 1, 2, 4, 6, 8 and 24 hours post-dose for the intragastric administration group, with 3 samples at each time point. Plasma samples of the intragastric administration group were cryopreserved at −80° C. and thawed before LC-MS/MS sample analysis. Acetonitrile containing internal standard was added to the thawed plasma samples at a certain ratio to precipitate proteins.
The mixture was centrifuged, and the supernatant was subjected to analysis by LC-MS/MS. An API4000 or 5500 system equipped with ACQUITY UPLC BEH C18 (2.1×50 mm, 1.7 μm) column and ESI positive or negative ion source was used. Each analysis batch included standard samples with 8 concentrations. A curve of the ratio of the peak areas of the test compound to the internal standard (IS) vs. the concentration of the test compound in the plasma sample was plotted, and linear regression was performed using 1/X^2 as weighting coefficient to give a regression equation between the measured response and the concentration. Each analysis batch also included corresponding quality control samples. Data processing was performed using Phoenix 6.3 WinNonlin® to give corresponding PK parameters.

CXCR2 = biological target: T1, CXCR2 (Homo sapiens, UniProt P25025); assay: PathHunter CXCR2 β-arrestin cell assay (CXCL8 agonist, chemiluminescence); type: cell-based; settings: CXCR2 β-arrestin cells, CXCL8 at EC80
T1 sequence (P25025 1-360): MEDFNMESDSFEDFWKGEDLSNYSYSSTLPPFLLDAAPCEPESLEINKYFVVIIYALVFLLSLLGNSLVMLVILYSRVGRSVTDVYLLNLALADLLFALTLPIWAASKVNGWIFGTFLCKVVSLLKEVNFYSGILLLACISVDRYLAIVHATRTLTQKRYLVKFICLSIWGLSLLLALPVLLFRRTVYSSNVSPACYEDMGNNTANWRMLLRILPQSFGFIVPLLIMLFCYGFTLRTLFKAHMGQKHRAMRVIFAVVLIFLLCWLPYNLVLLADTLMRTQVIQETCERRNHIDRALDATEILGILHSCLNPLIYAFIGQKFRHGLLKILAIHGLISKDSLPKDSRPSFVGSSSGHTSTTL
Method: CXCR2 β-arrestin cells (DiscoverX) of PathHunter® were cultured in standard conditions and inoculated at 20 μL/well to a 384-well white microplate. Before testing, the cells were incubated at 37° C. for an appropriate period of time. The test compound was serially 3-fold diluted in DMSO to give 8 concentrations. Shortly before testing, the serially diluted test samples were further diluted with test buffer to 5 folds of the test concentration. 5 μL of further diluted test samples were added to the cells and the cells were incubated at 37° C. for 30 min. The concentration of vehicle was 1%. 5 μL of 6×EC80 agonist (CXCL8) buffer was then added to the cells, and the cells were incubated at 37° C. for 90 min. The test signal was generated by adding 15 μL (50% v/v) of PathHunter detection mixture reagent in one portion and subsequently incubating the cells for 1 h. The chemiluminescence signal of the microplate was read by a PerkinElmer Envision™ instrument. The biological activities of the test compounds were analyzed by CBIS data analysis kit (ChemInnovation, CA), shown as IC50 values.

[2] = system: rat COPD model induced by smoking combined with lipopolysaccharide; assay: Anti-inflammation effect in rat COPD model induced by smoking combined with lipopolysaccharide; type: in vivo, SD rats; settings: Danirixin 30 mpk; crystalline form A 3-30 mpk
Method: Modeling: the animal model was prepared by exposing the rats to cigarette smoke once daily for 14 days. The rats were smoked for 90 min per day in 2 portions with a break of 10 min. 18 Marlboro cigarettes (with a tar content of 11 mg) were given each time. LPS was administered dropwise via airway at 200 μg/rat once weekly. The administration dropwise was performed on days 6 and 13 of smoke exposure (on the day of LPS administration dropwise, only LPS was administered dropwise for modeling without smoke exposure). • 2. Administration: an aqueous solution of 1% DMSO/20% PEG400/79% (HP-b-CD) was used as the vehicle, and the drugs were administrated intragastrically everyday at a volume of 5 mL/kg for 2 weeks. • 3. Endpoint: On day 15, pulmonary function test, sample collection, inflammatory cell count in bronchoalveolar lavage fluid, pathological analysis, and lung tissue MPO and MMP9 assay were carried out. Procedures of Pulmonary Function Test:
After the last smoking and modeling were finished, pulmonary function was tested for each group of animals on the second day, and pulmonary resistance and compliance were detected under stimulation of methacholine chloride at different doses. The animals were anesthetized by intraperitoneal injection with […] of 25% urethane. After the animals were deeply anesthetized, airway intubation was performed by separating airways, and meanwhile, jugular veins were separated. After breathing stably, the animals were put into a plethysmograph. Drug administration pipelines were inserted into the separated jugular veins. After the animals were in rest state for 1-2 min and the breathing curves were stable, then detection was started. Rats were administered with methacholine chloride at doses of 0, 0.0083, 0.025, 0.075, 0.225, 0.675 mg/kg by jugular vein intubation. The increase in airway resistance and decrease in pulmonary compliance were observed after each administration. After 1-2 min, the parameters returned to near the baseline of the previous concentration of methacholine chloride, and methacholine chloride of the next concentration was injected. After the detection was finished, subsequent alveolar lavage and sample collection were performed.
After the pulmonary function test was finished, the rats were sacrificed by cervical dislocation. After the animals were confirmed dead, the lungs were carefully separated, a lavage syringe was inserted into the main trachea and fixed with 2-0 silk thread. The right lung was ligated. 5 mL of low-temperature normal saline was slowly injected through the lavage syringe. The normal saline was slowly extracted after confirming that the normal saline was injected into the left lung. The operation was repeated twice. By the three lavages, a total of 15 mL of normal saline was injected for lavage. The obtained BALF was injected into a 15 mL centrifuge tube and preserved in a storage box at 4° C. for subsequent BALF cells counting.
After BALF was collected, the right lung which was not infused was taken off and weighted. The two upper lobes of the right lung were put into a cryopreservation tube, frozen in a freezer at −80° C. for later use. Lower lobe tissues were fixed in formalin.
1 mL of homogenously mixed BALF was added into 1 mL of a solution of 1% glacial acetic acid in normal saline. Cells were counted using a hemocytometer. The remaining lavage fluid was centrifuged at 1500 r/min for 10 min at 4° C. to give a cell mass. The cells were resuspended in 200 μL of normal saline, uniformly coated on a glass slide and stained by Wright-Giemsa stain. Macrophages, neutrophils and lymphocytes in a total of 200 cells were counted under a microscope, and the proportions of the cells was calculated. For lavage fluid collection, animals failing the lavage fluid collection were not summarized. […]

[3] = system: PPE-induced SD rat COPD model; assay: Therapeutic effect on PPE-induced COPD model; type: in vivo, SD rats; settings: 30 mpk intragastric daily, 4 weeks
From the text: • To test the therapeutic effect of the compound on PPE-induced SD rat COPD model. Materials: • Animals: SD rats (male, 160-180 g, 6 weeks age) • Test compounds: porcine pancreatic elastase (Sigma, 0.068 U/μL); Danirixin, compound 1. • Grouping: 1) vehicle group • 2) COPD model group (porcine pancreatic elastase modeling group/solvent group) • 3) PPE+Danirixin (30 mpk) • 4) PPE+compound 1 (10 mpk) • 5) PPE+compound 1 (30 mpk) Procedures: • 1. Modeling: PPE was given retrolingually. • 2. Administration: an aqueous solution of 1% DMSO/20% PEG400/79% (HP-b-CD) was used as the vehicle, and the drugs were administrated intragastrically everyday at a volume of 2 mL/rat for 4 weeks. • 3. Endpoint: On day 29, pulmonary function test, sample collection, and inflammatory cell count in bronchoalveolar lavage fluid.
Bronchoalveolar lavage: The rats were sacrificed, and dissected at the neck. Trachea intubation was performed. 1 mL of cold […] at 4° C. was infused for 3 lavages, and the lavage fluids were combined. The combined lavage fluids were centrifuged at 1200 rpm/min for 5 min, and the supernatant was discarded. The cell suspension was collected;

Row | half-life ([1]; rat, plasma, po, male Lewis rats, 10 mg/kg intragastric, read-out: Intragastric administration Half life (T1/2) (converted)) [h] | Cmax ([1]; rat, plasma, po, male Lewis rats, 10 mg/kg intragastric, read-out: Intragastric administration Maximum plasma concentration (Cmax)) [µM] | AUC ([1]; rat, plasma, po, male Lewis rats, 10 mg/kg intragastric, read-out: Intragastric administration Plasma exposure (AUC)) [µM·h] | clearance ([1]; rat, plasma, male Lewis rats, 2 mg/kg intravenous, read-out: Intravenous injection Clearance (CL)) [mL/min/kg] | Pharmacokinetic properties (in words) ([1]; rats) | IC50 (CXCR2) [nM] | SMILES | Anti-inflammatory effect (summary) [2] | Count of immune inflammatory cells (neutrophils, macrophages, lymphocytes) in bronchoalveolar lavage fluid [3]
1 | 4.22 | 3 | 31.3 | 5.07 | good pharmacokinetic properties | 22 | O=C(Nc1ccc(Cl)c(S(=O)(=O)[C@H]2CCCNC2)c1O)N[C@@H]1CCCc2cc(C(F)(F)F)oc21 [Compound 1] | – | –
2 | – | – | – | – | – | – | Cc1c(F)cccc1NC(=O)Nc1ccc(Cl)c(S(=O)(=O)[C@H]2CCCNC2)c1O [Danirixin, reference compound] | significant anti-inflammatory effect | significantly reduced
